We go through four compounds from patent EP0010358A1, “Beta-lactam compounds, processes for their preparation, compositions containing them, intermediates of use in their preparation and methods for the production thereof” (GLAXO GROUP LIMITED, priority 1978, dated 1980).

≈ marks a conversion by molar mass, not a printed value. Read-outs that look alike come from different tables or passages of the source.

What all share (test): Determination of Minimum Inhibitory Concentrations (MIC), agar dilution
What all share (assay type): cell-based

The test system of one experiment is S. marcescens 1324E. Particulars: Serratia marcescens. How it is done: (§1) Serial two-fold dilutions of freshly prepared test solutions were made into Oxoid No. 1 Nutrient agar with or without added enrichment and poured into petri dishes. Plates were inoculated with a multipoint inoculator with inoculum containing approximately 10^5 colony forming units of the organisms shown in the following Table, all of which organisms are clinical isolates. The MIC, quoted in the Table as µg/ml, was read after 18 hours incubation at 37°C as the lowest concentration which inhibited growth.

In the next experiment the test system is Staph. aureus 853E. The following applies: Staphylococcus aureus. As to the method: as §1
The next experiment concerns E. coli 851E. Particulars: Escherichia coli. How it is done: as §1
The next experiment has as its system H. influenzae 1184E. The following applies: Haemophilus influenzae. How it is done:
as §1

For the next experiment, the system named is Micrococcus Sp 1810E. Particulars: SP1810E. As to the method: as §1
The subject of the next experiment is E. cloacae 1321E. Particulars: Enterobacter cloacae. How it is done:
as §1

The subject of the next experiment is E. cloacae 1051E. The following applies: Enterobacter cloacae. As to the method: as §1
The test system of another experiment is K. aerogenes 1522E. The following applies: Klebsiella aerogenes. As to the method:
as §1

The mark [1] stands for this setting: S. marcescens 1324E, clinical isolate, Oxoid No. 1 Nutrient agar, approx. 10^5 colony forming units, 18 hours at 37°C, read-out: MIC.
[2] abbreviates: Staph. aureus 853E, clinical isolate, Oxoid No. 1 Nutrient agar, approx. 10^5 colony forming units, 18 hours at 37°C, read-out: MIC.
Where [3] appears, read: E. coli 851E, clinical isolate, Oxoid No. 1 Nutrient agar, approx. 10^5 colony forming units, 18 hours at 37°C, read-out: MIC.
Setting [4] is: H. influenzae 1184E, clinical isolate, Oxoid No. 1 Nutrient agar, approx. 10^5 colony forming units, 18 hours at 37°C, read-out: MIC.
The mark [5] stands for this setting: Micrococcus Sp 1810E, clinical isolate, Oxoid No. 1 Nutrient agar, approx. 10^5 colony forming units, 18 hours at 37°C, read-out: MIC.
[6] abbreviates: E. cloacae 1321E, clinical isolate, Oxoid No. 1 Nutrient agar, approx. 10^5 colony forming units, 18 hours at 37°C, read-out: MIC.
[7] abbreviates: E. cloacae 1051E, clinical isolate, Oxoid No. 1 Nutrient agar, approx. 10^5 colony forming units, 18 hours at 37°C, read-out: MIC.
Setting [8] is: K. aerogenes 1522E, clinical isolate, Oxoid No. 1 Nutrient agar, approx. 10^5 colony forming units, 18 hours at 37°C, read-out: MIC.

On to `CNC(=O)NCCC1=C(C(=O)O)N2C(=O)CC2S1` (racemic) [Example 10, Potassium (5RS)-2-(2-N-methylureidoethyl)pen-2-em-3-carboxylate], for which the MIC in the experiment with S. marcescens 1324E (setting [1]) stood at 8 µg/mL; in the experiment on Staph. aureus 853E (setting [2]), 62 µg/mL; in the experiment on E. coli 851E (setting [3]), 8 µg/mL; with H. influenzae 1184E (setting [4]), 8 µg/mL; with Micrococcus Sp 1810E (setting [5]), 1 µg/mL; with E. cloacae 1321E (setting [6]), 8 µg/mL. Also, the MIC in the experiment on E. cloacae 1051E (setting [7]) amounted to 16 µg/mL; in the experiment on K. aerogenes 1522E (setting [8]) it was 8 µg/mL.

With `CC(=O)NCCC1=C(C(=O)[O-])N2C(=O)CC2S1.[K+]` (racemic) [Example 7, Potassium (5RS)-2-(2-acetamidoethyl)pen-2-em-3-carboxylate], the MIC against S. marcescens 1324E (1324E, 18 h) was determined as 31 µg/mL; in the experiment on Staph. aureus 853E (853E, 18 h), 2 µg/mL; against E. coli 851E (851E, 18 h), 8 µg/mL; with H. influenzae 1184E (1184E, 18 h) it was 16 µg/mL; against Micrococcus Sp 1810E (Micrococcus, 18 h), 2 µg/mL; in the experiment on E. cloacae 1321E (1321E, 18 h) it was 4 µg/mL. Also, the MIC against E. cloacae 1051E (1051E, 18 h) was 16 µg/mL; against K. aerogenes 1522E (1522E, 18 h) it was 8 µg/mL.

Turning to `O=CNCCC1=C(C(=O)O)N2C(=O)CC2S1` (racemic) [Example 4, (5RS)-2-(2-Formamidoethyl)pen-2-em-3-carboxylic acid], the MIC with S. marcescens 1324E (setting [1]) was found to be 2 µg/mL (≈ 8.26 µM); in the experiment with Staph. aureus 853E (setting [2]) it was 2 µg/mL (≈ 8.26 µM); in the experiment with E. coli 851E (setting [3]), 1 µg/mL (≈ 4.13 µM); with H. influenzae 1184E (setting [4]) it was 2 µg/mL (≈ 8.26 µM); with Micrococcus Sp 1810E (setting [5]), 0.1 µg/mL (≈ 0.413 µM); in the experiment on E. cloacae 1321E (setting [6]), 1 µg/mL (≈ 4.13 µM). For the same compound, the figures for the MIC in the experiment with E. cloacae 1051E (setting [7]) and with K. aerogenes 1522E (setting [8]) were 1 µg/mL (≈ 4.13 µM) and 2 µg/mL (≈ 8.26 µM), respectively.

For `O=C(NCCC1=C(C(=O)O)N2C(=O)CC2S1)Nc1ccccc1` (racemic) [Example 11, Potassium (5RS)-2-(2-N-phenylureidoethyl)pen-2-em-3-carboxylate], the MIC is 8 µg/mL in the experiment with S. marcescens 1324E (setting [1]); 0.2 µg/mL in the experiment with Staph. aureus 853E (setting [2]); 2 µg/mL in the experiment on E. coli 851E (setting [3]); 16 µg/mL in the experiment on H. influenzae 1184E (setting [4]); 0.2 µg/mL in the experiment with Micrococcus Sp 1810E (setting [5]); 8 µg/mL with E. cloacae 1321E (setting [6]). Further, the MIC in the experiment with E. cloacae 1051E (setting [7]) was 16 µg/mL; with K. aerogenes 1522E (setting [8]), 2 µg/mL.
